Results on 29 compounds are retold here after ChEMBL document CHEMBL5154889, “Development of Novel IP6K Inhibitors for the Treatment of Obesity and Obesity-Induced Metabolic Dysfunctions” (J Med Chem, 2022).

SMILES strings stand for the structures. Activity calls are given as the source filed them. No cut-off for these calls is given here. Bounds are passed on as bounds.

Data set [1] deals with Mus musculus. Briefly: Anti-diabetic activity in 16 hrs fasted C57BL6J mouse model of high fat diet-induced obesity assessed as improved blood glucose disposal at 2 mg/kg, ip administered for 3 weeks by insulin tolerance test. In kind it is functional, organism-based.
The subject of data set [2] is Mus musculus. Nature of the data set: Reduction in liver weight in C57BL6J mouse model of high fat diet-induced obesity at 2 mg/kg, ip administered for 4 weeks by H and E staining assay. It counts as functional, organism-based.
Data set [3] deals with Death-associated protein kinase 1 (Homo sapiens) (UniProt P53355). Nature of the data set: Inhibition of DAPK1 (unknown origin) at 1 uM relative to control.
Chain of Death-associated protein kinase 1 (Homo sapiens) (P53355 whole entry, looked up): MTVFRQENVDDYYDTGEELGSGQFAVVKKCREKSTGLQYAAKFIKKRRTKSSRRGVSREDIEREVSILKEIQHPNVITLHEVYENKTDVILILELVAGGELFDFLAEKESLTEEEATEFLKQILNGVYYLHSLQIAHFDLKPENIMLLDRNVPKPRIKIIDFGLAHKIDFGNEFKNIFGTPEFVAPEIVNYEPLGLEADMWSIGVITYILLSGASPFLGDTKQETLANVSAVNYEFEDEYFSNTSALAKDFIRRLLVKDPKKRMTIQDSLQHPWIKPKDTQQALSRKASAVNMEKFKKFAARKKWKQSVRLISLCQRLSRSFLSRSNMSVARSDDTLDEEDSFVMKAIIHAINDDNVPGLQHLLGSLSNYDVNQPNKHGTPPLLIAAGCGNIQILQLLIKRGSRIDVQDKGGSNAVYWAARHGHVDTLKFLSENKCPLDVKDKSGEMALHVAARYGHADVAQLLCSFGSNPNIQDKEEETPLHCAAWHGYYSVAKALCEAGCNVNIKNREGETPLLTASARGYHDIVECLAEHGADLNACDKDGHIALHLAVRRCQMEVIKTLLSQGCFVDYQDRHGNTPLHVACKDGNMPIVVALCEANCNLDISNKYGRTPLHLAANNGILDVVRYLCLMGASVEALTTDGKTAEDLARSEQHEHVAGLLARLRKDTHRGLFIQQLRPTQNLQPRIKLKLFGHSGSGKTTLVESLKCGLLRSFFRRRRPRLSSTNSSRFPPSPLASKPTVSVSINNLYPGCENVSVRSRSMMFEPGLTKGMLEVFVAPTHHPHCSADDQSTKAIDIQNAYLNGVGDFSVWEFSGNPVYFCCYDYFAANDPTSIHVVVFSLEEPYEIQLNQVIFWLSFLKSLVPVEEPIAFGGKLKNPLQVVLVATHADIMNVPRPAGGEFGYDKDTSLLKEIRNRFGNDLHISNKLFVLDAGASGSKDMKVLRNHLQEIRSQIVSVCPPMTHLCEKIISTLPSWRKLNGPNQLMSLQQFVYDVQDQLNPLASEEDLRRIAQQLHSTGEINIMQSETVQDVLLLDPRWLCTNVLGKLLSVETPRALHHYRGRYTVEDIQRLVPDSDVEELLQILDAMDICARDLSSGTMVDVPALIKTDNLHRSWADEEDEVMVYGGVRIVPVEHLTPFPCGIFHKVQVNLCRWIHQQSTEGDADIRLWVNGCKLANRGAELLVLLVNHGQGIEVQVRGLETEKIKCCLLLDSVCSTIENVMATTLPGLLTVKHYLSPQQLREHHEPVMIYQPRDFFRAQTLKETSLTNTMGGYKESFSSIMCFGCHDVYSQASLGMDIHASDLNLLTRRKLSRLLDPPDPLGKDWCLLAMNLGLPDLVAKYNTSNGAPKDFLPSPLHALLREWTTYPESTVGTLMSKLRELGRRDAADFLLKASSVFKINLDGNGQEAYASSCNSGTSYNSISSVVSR
The subject of data set [4] is Mus musculus. Briefly: Anti-diabetic activity in 16 hrs fasted C57BL6J mouse model of high fat diet-induced obesity assessed as reduction in pyruvate-induced gluconeogenesis at 2 mg/kg, ip administered for 4 weeks by pyruvate tolerance test. In kind it is functional, organism-based.
The subject of data set [5] is Mus musculus. Nature of the data set: Anti-diabetic activity in 5 hrs fasted C57BL6J mouse model of high fat diet-induced obesity assessed as improved blood glucose disposal at […], ip administered for 1 weeks by insulin tolerance test. In kind it is functional, organism-based.
The subject of data set [6] is Mus musculus. Nature of the data set: Reduction in hepatic steatosis in C57BL6J mouse model of high fat diet-induced obesity at 2 mg/kg, ip administered for 4 weeks by H and E staining assay. In kind it is functional, organism-based.
Data set [7] concerns Mus musculus. Nature of the data set: Anti-obesity activity in high fat diet-induced obesity C57BL6J mouse model assessed as reduction in epididymal-adipose tissue weight at 5 mg/kg, ip administered for 4 weeks. In kind it is functional, organism-based.
Data set [8] has as its system Mus musculus. Nature of the data set: Anti-obesity activity in high fat diet-induced obesity C57BL6J mouse model assessed as reduction in inguinal-adipose tissue weight at 5 mg/kg, ip administered for 4 weeks. It counts as functional, organism-based.
The nature of data set [9]: AUClast in diet-induced obesity CD1 mouse model at 5 mg/kg, iv measured up to 24 hrs post-dosing by LC-MS/MS analysis. It counts as ADME, organism-based. Further details: dose 5 mg/kg, time < 24 hrs, route iv. The settings on record: in vivo.
Data set [10] is described as follows: Clearance in diet-induced obesity CD1 mouse at 5 mg/kg, iv measured up to 24 hrs post-dosing by LC-MS/MS analysis. In kind it is ADME, organism-based. Particulars: in vivo.
Data set [11] deals with Inositol-trisphosphate 3-kinase A (Homo sapiens) (UniProt P23677). Briefly: Inhibition of N-terminal 6His-tagged/TEV cleavage site fused recombinant human IP3KA (173 to 461 residues) expressed in Escherichia coli using [3H]-Ins91,4,5)P3 as substrate measured after 60 mins by HPLC analysis.
Chain of Inositol-trisphosphate 3-kinase A (Homo sapiens) (P23677 whole entry, the tested form may be a part): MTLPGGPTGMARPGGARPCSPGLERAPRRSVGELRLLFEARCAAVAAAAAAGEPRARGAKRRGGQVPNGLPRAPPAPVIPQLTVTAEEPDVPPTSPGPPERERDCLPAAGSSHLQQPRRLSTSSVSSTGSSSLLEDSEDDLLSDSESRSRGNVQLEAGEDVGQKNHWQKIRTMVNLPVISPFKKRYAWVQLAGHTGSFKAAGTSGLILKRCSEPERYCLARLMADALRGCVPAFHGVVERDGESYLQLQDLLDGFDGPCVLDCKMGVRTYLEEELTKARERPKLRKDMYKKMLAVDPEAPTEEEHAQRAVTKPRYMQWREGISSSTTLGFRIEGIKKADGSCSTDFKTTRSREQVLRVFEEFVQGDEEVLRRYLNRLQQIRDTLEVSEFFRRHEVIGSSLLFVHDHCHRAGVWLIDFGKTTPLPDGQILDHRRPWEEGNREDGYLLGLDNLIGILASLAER
In data set [12] the test system is Mus musculus. Briefly: Anti-obesity activity in high fat diet-induced obesity C57BL6J mouse model assessed as reduction in body weight at 5 mg/kg, ip administered for 4 weeks. In kind it is functional, organism-based.
Data set [13] is described as follows: AUClast in diet-induced obesity CD1 mouse at 5 mg/kg, ip measured up to 24 hrs post-dosing by LC-MS/MS analysis. Also noted: dose 5 mg/kg, time < 24 hrs, route ip. The settings on record: in vivo. It counts as ADME, organism-based.
In a further data set the target is CYP2C9 (Homo sapiens, UniProt P11712). Nature of the data set: Inhibition of CYP2C9 in human liver microsomes at 10 uM in presence of NADPH by LC-MS/MS analysis. In kind it is ADME, Microsome.
Chain of CYP2C9 (P11712 whole entry): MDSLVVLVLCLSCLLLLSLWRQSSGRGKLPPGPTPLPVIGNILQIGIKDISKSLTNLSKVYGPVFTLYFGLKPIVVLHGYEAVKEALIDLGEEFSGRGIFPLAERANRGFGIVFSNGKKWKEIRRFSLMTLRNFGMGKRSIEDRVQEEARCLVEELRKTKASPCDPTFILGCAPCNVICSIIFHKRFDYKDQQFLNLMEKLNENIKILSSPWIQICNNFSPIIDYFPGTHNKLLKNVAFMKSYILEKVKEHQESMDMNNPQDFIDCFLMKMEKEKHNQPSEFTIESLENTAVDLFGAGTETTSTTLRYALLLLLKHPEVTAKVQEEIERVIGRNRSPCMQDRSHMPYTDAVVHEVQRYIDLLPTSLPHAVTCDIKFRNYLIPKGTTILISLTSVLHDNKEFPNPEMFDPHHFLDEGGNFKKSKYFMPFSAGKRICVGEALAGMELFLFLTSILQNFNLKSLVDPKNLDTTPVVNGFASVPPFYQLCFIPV
The subject of data set [14] is Mus musculus. Briefly: Anti-obesity activity in high fat diet-induced obesity C57BL6J mouse model assessed as reduction in lean mass at 5 mg/kg, ip administered for 4 weeks. In kind it is functional, organism-based.
Data set [15] concerns Mus musculus. Nature of the data set: Anti-obesity activity in high fat diet-induced obesity C57BL6J mouse model assessed as reduction in fat mass at 5 mg/kg, ip administered for 4 weeks. It counts as functional, organism-based.
The target in data set [16] is T1, Inositol hexakisphosphate kinase 3 (Homo sapiens, UniProt Q96PC2).
T1 sequence (Q96PC2 whole entry): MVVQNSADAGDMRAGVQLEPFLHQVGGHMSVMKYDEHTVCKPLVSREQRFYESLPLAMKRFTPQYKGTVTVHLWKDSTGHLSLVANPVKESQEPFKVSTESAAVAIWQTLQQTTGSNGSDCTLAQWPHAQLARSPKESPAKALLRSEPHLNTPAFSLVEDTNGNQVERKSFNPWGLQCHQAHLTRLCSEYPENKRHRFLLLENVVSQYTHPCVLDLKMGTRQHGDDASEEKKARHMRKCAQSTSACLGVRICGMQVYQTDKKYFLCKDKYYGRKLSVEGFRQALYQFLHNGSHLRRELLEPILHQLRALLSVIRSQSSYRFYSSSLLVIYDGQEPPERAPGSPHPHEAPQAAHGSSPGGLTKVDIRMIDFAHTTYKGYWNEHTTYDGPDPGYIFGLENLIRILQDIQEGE
Nature of the data set: Inhibition of N-terminal 6His-sumo-tagged recombinant human IP6K3 expressed in Escherichia coli assessed as inorganic phosphate release using InsP6 as substrate in presence of ATP measured after 60 to 120 mins by malachite green based colorimetric - DIPP1 coupled enzyme assay.

Data set [17] addresses T2, Inositol hexakisphosphate kinase 2 (Homo sapiens, UniProt Q9UHH9).
T2 sequence (Q9UHH9 whole entry): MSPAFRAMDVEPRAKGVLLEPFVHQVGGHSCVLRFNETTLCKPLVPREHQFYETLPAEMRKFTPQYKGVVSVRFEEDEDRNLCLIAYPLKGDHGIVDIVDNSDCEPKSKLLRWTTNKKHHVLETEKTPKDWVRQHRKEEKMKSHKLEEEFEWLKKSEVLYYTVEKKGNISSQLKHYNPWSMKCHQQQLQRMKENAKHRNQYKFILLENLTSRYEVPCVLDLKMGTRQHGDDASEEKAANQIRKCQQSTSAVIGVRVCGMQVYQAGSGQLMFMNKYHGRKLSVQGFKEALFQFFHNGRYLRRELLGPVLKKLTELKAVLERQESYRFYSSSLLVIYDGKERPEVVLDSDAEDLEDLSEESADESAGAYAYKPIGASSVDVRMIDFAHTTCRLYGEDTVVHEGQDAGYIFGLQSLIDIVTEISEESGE
Nature of the data set: Inhibition of N-terminal 6His-tagged/TEV cleavage site fused recombinant human IP6K2 expressed in Escherichia coli assessed as inorganic phosphate release using InsP6 as substrate in presence of ATP measured after 60 to 120 mins by malachite green based colorimetric - DIPP1 coupled enzyme assay.

The target in data set [18] is T3, Inositol hexakisphosphate kinase 1 (Homo sapiens, UniProt Q92551). Nature of the data set: Inhibition of N-terminal 6His-MBP-tagged recombinant human IP6K1 expressed in Escherichia coli assessed as inorganic phosphate release using InsP6 as substrate in presence of ATP measured after 60 to 120 mins by malachite green based colorimetric - DIPP1 coupled enzyme assay.
Target sequence in this assay (Q92551 whole entry): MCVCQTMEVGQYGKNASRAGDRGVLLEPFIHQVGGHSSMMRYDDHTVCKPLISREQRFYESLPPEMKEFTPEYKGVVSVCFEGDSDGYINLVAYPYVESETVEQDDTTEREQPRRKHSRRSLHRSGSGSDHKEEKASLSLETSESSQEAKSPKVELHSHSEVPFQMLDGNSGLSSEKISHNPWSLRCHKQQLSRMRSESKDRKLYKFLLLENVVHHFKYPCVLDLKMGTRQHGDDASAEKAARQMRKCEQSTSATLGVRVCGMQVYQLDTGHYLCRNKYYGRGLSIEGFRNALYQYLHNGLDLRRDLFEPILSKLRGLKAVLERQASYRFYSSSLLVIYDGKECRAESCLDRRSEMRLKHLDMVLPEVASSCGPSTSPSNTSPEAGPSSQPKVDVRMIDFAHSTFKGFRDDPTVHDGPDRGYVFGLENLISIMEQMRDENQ

Data set [19] addresses T3, Inositol hexakisphosphate kinase 1. Nature of the data set: Inhibition of recombinant full length human IP6K1 assessed as inorganic phosphate release measured after 30 mins by ADP-Glo Max assay. Background: ADP-Glo turns the ADP formed in a reaction into a luminescent signal.
Target sequence in this assay (Q92551 whole entry): as above
Data set [20] shares this target. Briefly: Inhibition of recombinant full length human IP6K1 in HCT-116 cells assessed as reduction in InsP7 level at 10 to 30 uM measured after 30 mins by toluidine blue staining based analysis. The settings on record: dose 10-30 µM. In kind it is cell-based.
Target sequence in this assay (Q92551 whole entry, looked up): as the sequence (Q92551 whole entry) above
Data set [21] deals with T2, Inositol hexakisphosphate kinase 2. Briefly: Inhibition of recombinant full length human IP6K2 assessed as inorganic phosphate release measured after 30 mins by ADP-Glo Max assay.
Data set [22] has as its target T1, Inositol hexakisphosphate kinase 3. Nature of the data set: Inhibition of recombinant full length human IP6K3 assessed as inorganic phosphate release measured after 2 hrs by ADP-Glo Max assay.
The species named for another data set is Homo sapiens. Nature of the data set: Selectivity ratio of IC50 for N-terminal 6His-sumo-tagged recombinant human IP6K3 expressed in Escherichia coli assessed as inorganic phosphate release using InsP6 as substrate in presence of ATP measured to IC50 for N-terminal 6His-MBP-tagged recombinant human IP6K1 expressed in Escherichia coli assessed as inorganic phosphate release using InsP6 as substrate in presence of ATP.

The term inhibition denotes how much of the control response was suppressed. As a reminder, the clearance is the volume of plasma or blood freed of the substance per unit of time. A higher clearance goes with a high capacity for elimination. On to `O=C(O)c1ccc2noc(-c3ccc(-c4ccccc4)cc3)c2c1`, for which the result in the data set with Mus musculus [1], with Mus musculus [2], in the data set on Mus musculus [4], in the data set on Mus musculus [5], in the data set on Mus musculus [6] and with Mus musculus [7] was Active. The outcome in the data set on Mus musculus [8], in the data set with Mus musculus [12], in the data set with Mus musculus [14] and in the data set on Mus musculus [15] was Active. The compound further displayed an inhibition in data set [3] of 31%. The AUClast in [9] turned out to be 6054 ng·h/mL; in data set [13], 2527 ng·h/mL. Also, the clearance in data set [10] worked out at 13.7 mL/min/kg. The inhibition result in data set [11] was “Active”. Further, the inhibition at 10 µM at CYP2C9 was 36%.
Usually IC50 stands for the concentration that inhibits the measured activity by half. Take `O=C(O)c1ccc2noc(-c3ccc(Cc4ccccc4)cc3)c2c1`: the IC50 in [16] is 1.29 µM.
On the same count and under the same terms, in the case of `Cc1cccc(-c2onc3ccc(/C=C/C(=O)O)cc23)c1` it was 3.59 µM.
As to `O=[N+]([O-])c1ccc(CNc2nc(NCc3cccc(C(F)(F)F)c3)nc3[nH]cnc23)cc1`, the results for the IC50 in [17], in [18] and in [16] were 2 µM, 1 µM and 14.5 µM, respectively.
Consider `O=C(O)c1ccc2noc(-c3cccc(Oc4ccccn4)c3)c2c1`, for which the IC50 in [16] was determined as 10.9 µM.
Regarding `O=C(O)c1ccc2noc(-c3cccc(Oc4ccccc4)c3)c2c1`, the IC50 in data set [16] is 0.85 µM.
The same measure, in the same setting: the figure for `Cc1cccc(-c2onc3ccc(C(=O)O)cc23)c1` is 1.41 µM; for `O=C(O)c1ccc2noc(-c3ccc(N4CCCCC4)cc3)c2c1` it is 1.79 µM.
Turning to `O=C(O)c1ccc2noc(-c3cccc(-c4ccccc4)c3)c2c1`, the IC50 in data set [17] amounted to 0.13 µM; in [16], 0.84 µM.
With `O=C(O)c1ccc2noc(-c3ccc(NC(=O)c4ccncn4)cc3)c2c1`, the IC50 in [16] amounted to 0.43 µM.
As for `Cc1cc(C)cc(-c2onc3ccc(C(=O)O)cc23)c1`, the IC50 in data set [16] worked out at 2.44 µM.
As to `O=C(O)/C=C/c1ccc2noc(-c3ccc(OC(F)(F)F)cc3)c2c1`, the 50% inhibitory concentration (IC50) in [16] amounted to 8.37 µM.
Turning to `O=C(O)c1ccc2c(c1)C1(CCN(C(=O)c3ccc(Cl)cc3)CC1)C(=O)N2`, the figures for the IC50 in data set [19], in data set [21] and in data set [22] were 0.027 µM, 0.025 µM and 0.008 µM, respectively. Also, the inhibition entry in data set [20] was “Active”.
Turning to `O=C(O)c1ccc2noc(-c3ccc(NC(=O)C4CCCC4)cc3)c2c1`, in data set [16], the IC50 was determined as 0.24 µM.
Take `CC(C)C(=O)Nc1ccc(-c2onc3ccc(C(=O)O)cc23)cc1`: the IC50 in data set [17] was 0.82 µM; in data set [16] it was 0.21 µM.
With `O=C(O)c1ccc2noc(-c3ccc(Oc4ccccc4)cc3)c2c1`, the IC50 in [16] is 0.55 µM.
Turning to `O=C(O)/C=C/c1ccc2noc(-c3ccc(-c4ccccc4)cc3)c2c1`, the IC50 in data set [16] came to 0.2 µM.
In the case of `O=C(O)c1ccc2noc(-c3ccc(Oc4ncc(Cl)cc4Cl)cc3)c2c1`, the Ratio IC50 in the data set listed under Homo sapiens stood at 5.2. Moreover, the IC50 in [18] is 0.43 µM; in data set [16], 2.25 µM.
With `O=C(O)/C=C/c1ccc2noc(-c3ccc(Oc4ccccc4)cc3)c2c1`, the IC50 in data set [16] was 0.76 µM.
Take `CC(C)NC(=O)c1ccc(-c2onc3ccc(C(=O)O)cc23)cc1`: the values for the IC50 in data set [17] and in data set [16] were 0.35 µM and 0.34 µM, respectively.
`O=C(O)c1ccc2noc(-c3cccc(NC(=O)C4CC4)c3)c2c1`: in data set [16], the IC50 was 2.81 µM.
On the same count and under the same terms, the figure for `O=C(O)c1ccc2noc(-c3ccc(NC(=O)c4ccccc4)cc3)c2c1` is 0.2 µM; for `O=C(O)c1ccc2noc(-c3ccc(N4CCCC4=O)cc3)c2c1` it is 2.17 µM.
Regarding `CN(C)C(=O)/C=C/c1ccc2noc(-c3ccccc3)c2c1`, the Ratio IC50 in the data set listed under Homo sapiens is above 3.4. Besides, in data set [16], the IC50 is above 100 µM.
Take `O=C(O)c1ccc2noc(-c3ccccc3)c2c1`: the IC50 in [16] is 2.69 µM.
For `O=C(O)c1ccc2noc(-c3ccc(-c4ccncc4)cc3)c2c1`, the IC50 in data set [16] stood at 0.67 µM.
The same measure, in the same setting: in the case of `O=C(O)c1ccc2noc(-c3cccc(C(F)(F)F)c3)c2c1` it was 4.62 µM; in that of `O=C(O)c1ccc2noc(-c3cccc(Oc4ncc(Cl)cc4Cl)c3)c2c1`, 3.09 µM.
With `O=C(O)/C=C/c1ccc2c(-c3ccccc3)onc2c1`, the Ratio IC50 in the data set filed under Homo sapiens was determined as 3.6.
